Test results taken from patent US20090215752A1, “Compounds, preparation and therapeutic use thereof” (priority 2005, published 2009).

What was measured:
[1] = test system: σ (non-selective) receptors; experiment: Sigma receptors binding, non-selective ([3H]DTG); conditions: [3H]DTG 8 nM, rat cerebral cortex
Procedure: The sigma receptors were isolated from rat cerebral cortex according to the method described in Shirayama et al., 1993, p-Chlorophenylalanine-reversible reduction of s binding sites by chronic imipramine treatment in rat brain, Eur. J. Pharmacol., 237: 117-126.
Sigma 1 receptor binding was determined by a radioligand method using tritium-labelled DTG (8 nM) as substrate (Shirayama et al., 1993). Ligand radioactivity was determined by liquid scintillation counting. For sigma binding evaluation, ligand incubations were carried out for one hundred twenty minutes at 22° C. The experiments were conducted in duplicate.
The specific ligand binding to the sigma receptors was defined as the difference between the total binding and the non specific binding determined in presence of an excess of unlabelled ligand. […]

σ receptors = experiment: Isolated organ bioassay, field-stimulated vas deferens: test for agonist activity; parameters: species or system guinea pig; conditions: mean, n=2
Procedure: Segments of guinea pig vas deferens were suspended in 20-ml organ baths containing an oxygenated (95% O2 and 5% CO2) and pre-warmed (37° C.) physiological salt solution of the following composition (in mM): NaCl 118.0, KCl 4.7, MgSO4 1.2, CaCl2 2.5, KH2PO4 1.2, NaHCO3 25.0 and glucose 11.0 (pH 7.4). Yohimbine (1 μM), (−) sulpiride (1 μM), atropine (1 μM) and naloxone (1 μM) were also present throughout the experiments to block the α2-adrenergic, dopamine D2, muscarinic and opioid receptors, respectively. The tissues were connected to force transducers for isometric tension recordings. They were stretched to a resting tension of 0.5 g, allowed to equilibrate for at least 30 min during which time they were washed repeatedly and the tension readjusted. Thereafter, they were stimulated electrically using a constant current stimulator.
The tissues were exposed to a submaximal concentration of the reference agonist (+) SKF-10047 (100 μM) to verify responsiveness and to obtain a control response. Following washings and recovery of the twitch contraction amplitude, the tissues were exposed to increasing concentrations of substance or the same agonist. The different concentrations were added cumulatively and each was left in contact with the tissues until a stable response was obtained or for a maximum of 15 min. If an agonist-like response (enhancement of twitch contractions) was obtained, the reference antagonist rimcazole (10 μM) was tested against the highest concentration of substance to confirm the involvement of the σ receptors in this response.
The parameter measured was the maximum change in the twitch contraction amplitude induced by each compound concentration. The results are expressed as a percent variation of the control twitch contraction amplitude (mean values). The effects of substance tested at 1.0 10^−6 M, 3.0 10^−6 M and 1.0 10^−5 M for agonist and antagonist activities at the σ receptors in the guinea pig vas deferens bioassay are summarized in Tables 6-7 where those of the reference compounds are also reported.

PDE2 = biological target: T1, PDE2 (Homo sapiens, UniProt O00408); experiment: Inhibition of PDE2 (radioenzymatic phosphodiesterase assay); type: biochemical; conditions: Table 1, 1 μM cyclic AMP
T1 construct: PDE2 was isolated from human platelets, provided by Etablissement Français du Sang-Alsace; tissue Etablissement Français du Sang-Alsace; host or cells: human platelets
T1 sequence (O00408 whole entry): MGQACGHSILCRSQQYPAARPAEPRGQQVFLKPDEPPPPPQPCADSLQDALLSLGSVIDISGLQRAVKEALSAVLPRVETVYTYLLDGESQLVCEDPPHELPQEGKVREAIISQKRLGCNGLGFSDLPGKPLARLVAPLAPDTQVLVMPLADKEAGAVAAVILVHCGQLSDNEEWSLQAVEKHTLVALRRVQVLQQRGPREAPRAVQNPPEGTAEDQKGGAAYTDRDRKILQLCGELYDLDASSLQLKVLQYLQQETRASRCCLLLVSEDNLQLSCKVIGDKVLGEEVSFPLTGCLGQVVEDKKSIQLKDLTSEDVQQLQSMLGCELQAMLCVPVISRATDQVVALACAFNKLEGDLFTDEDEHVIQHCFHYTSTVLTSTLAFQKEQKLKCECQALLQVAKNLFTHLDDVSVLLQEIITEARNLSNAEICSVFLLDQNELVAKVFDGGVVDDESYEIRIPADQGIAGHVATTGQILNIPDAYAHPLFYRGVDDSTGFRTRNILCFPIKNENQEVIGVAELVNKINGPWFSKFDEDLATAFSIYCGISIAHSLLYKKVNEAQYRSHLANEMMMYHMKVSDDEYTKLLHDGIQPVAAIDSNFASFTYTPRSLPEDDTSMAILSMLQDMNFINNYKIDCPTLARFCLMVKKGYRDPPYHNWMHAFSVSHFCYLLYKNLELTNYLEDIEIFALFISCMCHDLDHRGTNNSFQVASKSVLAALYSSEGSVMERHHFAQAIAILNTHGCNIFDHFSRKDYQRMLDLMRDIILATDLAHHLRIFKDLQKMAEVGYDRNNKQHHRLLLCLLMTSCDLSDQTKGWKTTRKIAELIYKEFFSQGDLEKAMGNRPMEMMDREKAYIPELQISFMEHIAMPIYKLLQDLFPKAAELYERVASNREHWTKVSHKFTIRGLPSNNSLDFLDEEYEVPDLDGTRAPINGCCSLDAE
Procedure: 2.1.1. Isolation of Phosphodiesterases from Smooth Muscle A 3 g segment of bovine aortic media cut into pieces with scissors was homogenized with an ultra-turrax then a potter glass/glass homogenizer in 7 volumes by weight of buffer A containing a protease inhibitor cocktail (20 mM Tris-HCl, 0.25 M saccharose, 2 mM magnesium acetate, 1 mM dithiothreitol, 5 mM EGTA, 2000 U/ml aprotinin, 10 mg/l leupeptin and 10 mg/l soya trypsic inhibitor). The homogenizate was centrifuged at 105,000 g for 1 hour. The supernatant was loaded on a DEAE-Sephacel column (15×1.6 cm) pre-equilibrated with buffer B (buffer A without the saccharose, EGTA and protease inhibitors). The column was washed until there was no detectable absorption at 280 nm, then eluted with a linear gradient of NaCl (0-0.5 M) in buffer B. 3-ml fractions were collected and enzyme activity was determined under the conditions described hereinbelow to localize the different enzymes PDE1, PDE3, PDE4 and PDE5 which were aliquoted and frozen at −80° C. (Lugnier et al., Biochem. Phamacol., 1986, 35: 1746-1751). PDE2 was isolated from human platelets, provided by Etablissement Français du Sang-Alsace, according to Kameni Tcheudji J F et al., (J. Mol. Biol. 2001; 310: 181-791), and stored until use at −80° C. in small aliquots.
Cyclic nucleotide phosphodiesterase activity was determined by a radioenzymatic method using tritium-labelled cyclic GMP or AMP (1 μM) as substrate (Lugnier et al., 1986). ^3H-labelled adenosine or guanosine monophosphate formed by hydrolysis of the radiolabelled cyclic nucleotide was then converted to ^3H-labelled adenosine or guanosine in a second reaction with […] in excess. The nucleoside formed was separated from the nucleotides by anion exchange chromatography. Nucleoside radioactivity was determined by liquid scintillation counting. Enzymatic incubations were carried out under conditions allowing no more than 15% hydrolysis of the substrate; each point was performed in duplicate.
The concentration of substance which inhibits enzymatic activity by 50% (IC50) at 1 μM cyclic AMP was calculated by nonlinear regression from the experimental values of hydrolysis rate (Prism, GraphPad).

5-HT transporter = biological target: T2, 5-HT transporter (Homo sapiens, UniProt P31645); experiment: Serotonergic transporter binding ([3H]imipramine); conditions: [3H]imipramine 2 nM, HEK-293 recombinant, read-out: percentage inhibition at 10 μM of control specific binding to the serotonergic transporter
T2 construct: expressed in transfected cells; host or cells: HEK-293
T2 sequence (P31645 whole entry): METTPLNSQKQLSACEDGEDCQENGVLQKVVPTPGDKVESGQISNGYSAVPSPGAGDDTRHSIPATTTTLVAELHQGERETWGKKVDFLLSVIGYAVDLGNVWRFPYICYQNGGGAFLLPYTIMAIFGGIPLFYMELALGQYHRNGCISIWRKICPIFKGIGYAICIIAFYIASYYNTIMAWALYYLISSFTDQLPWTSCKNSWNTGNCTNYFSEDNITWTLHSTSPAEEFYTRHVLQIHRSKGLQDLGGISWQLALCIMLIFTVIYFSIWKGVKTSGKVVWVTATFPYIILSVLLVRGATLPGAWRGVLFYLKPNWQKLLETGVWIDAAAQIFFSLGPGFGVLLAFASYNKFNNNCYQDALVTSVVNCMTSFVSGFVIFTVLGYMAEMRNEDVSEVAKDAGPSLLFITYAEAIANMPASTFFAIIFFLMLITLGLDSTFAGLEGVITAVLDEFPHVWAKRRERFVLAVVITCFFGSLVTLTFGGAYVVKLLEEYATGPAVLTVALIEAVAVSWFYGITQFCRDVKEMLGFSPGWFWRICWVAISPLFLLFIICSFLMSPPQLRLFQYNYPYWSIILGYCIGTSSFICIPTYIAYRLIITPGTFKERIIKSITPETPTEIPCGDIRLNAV
Procedure: The serotonergic 5-HT transporter was isolated from human recombinant HEK-293 cells according to the method described by Tatsumi et al. (1997), Pharmacological profile of antidepressants and related compounds at human monoamine transporters, Eur. J. Pharmacol., 340: 249-258.
Serotonergic transporter binding was determined by a radioligand method using tritium-labelled imipramine (2 nM) as substrate (Tatsumi et al., 1999). Ligand radioactivity was determined by liquid scintillation counting. Ligand incubations were carried out for thirty minutes at 22° C. The experiment was conducted in duplicate.
The specific ligand binding to the serotonergic transporter was defined as the difference between the total binding and the non specific binding determined in presence of an excess of unlabelled ligand. The results obtained are presented in Table 3 hereinbelow and are expressed as percent of control specific binding and as a percent inhibition of control specific binding obtained in presence of 10 μM of substance.

COc1cc2c(c(OC)c1-c1ccccc1)C(c1cccc(C(N)=O)c1)=NCC(=O)N2C [Compound 17, 3-(6,8-Dimethoxy-1-methyl-2-oxo-7-phenyl-2,3-dihydro-1H-benzo[e][1,4]diazepin-5-yl)-benzamide]
σ (non-selective) percentage inhibition at 0.1 μM ([1]; 0.1 μM): 1% | σ (non-selective) percentage inhibition at 1 μM ([1]; 1 μM): 57% | σ (non-selective) percentage inhibition at 10 μM ([1]; 10 μM): 100% | Response to the compound, variation of twitch contraction amplitude (σ receptors; 1.0 10^−5 M): +33% | Response to the compound, variation of twitch contraction amplitude (σ receptors; 1.0 10^−6 M): 0% | Response to the compound, variation of twitch contraction amplitude (σ receptors; 3.0 10^−6 M): 0% | Response to the highest concentration of the compound +Rimcazole (1.0 10^−5 M) (σ receptors; highest compound concentration plus rimcazole 1.0 10^−5 M): −9% | inhibition at 10 µM (PDE2; 10 μM compound, read-out: PDE2 percentage inhibition at 10 μM): 80% | IC50 (PDE2; value in square brackets, read-out: PDE2 IC50): 800 nM | inhibition at 10 µM (5-HT transporter): 98%
